Measurements taken from paper PMC6220849, “Mechanistic and structural studies of KDM‐catalysed demethylation of histone 1 isotype 4 at lysine 26” (Febs Letters, 2018).
Square brackets hold non-standard residues; d marks the D form. Ends that are not written are not given here. Lys(Me2) = CN(C)CCCC[C@H](N)C(=O)O

Columns and labels:
recombinant human KDM4A = target: T1, recombinant human KDM4A (Homo sapiens, UniProt O75164); experiment: Formaldehyde dehydrogenase (FDH)-coupled demethylation assay, Michaelis–Menten kinetics; assay type: biochemical; details: peptide as substrate
T1 construct: recombinantly expressed as reported either in Escherichia coli (KDM2A1–557 25, KDM4A1–359 26); His6 (N); made in house; host or cells: Escherichia coli
T1 sequence (O75164 1-359): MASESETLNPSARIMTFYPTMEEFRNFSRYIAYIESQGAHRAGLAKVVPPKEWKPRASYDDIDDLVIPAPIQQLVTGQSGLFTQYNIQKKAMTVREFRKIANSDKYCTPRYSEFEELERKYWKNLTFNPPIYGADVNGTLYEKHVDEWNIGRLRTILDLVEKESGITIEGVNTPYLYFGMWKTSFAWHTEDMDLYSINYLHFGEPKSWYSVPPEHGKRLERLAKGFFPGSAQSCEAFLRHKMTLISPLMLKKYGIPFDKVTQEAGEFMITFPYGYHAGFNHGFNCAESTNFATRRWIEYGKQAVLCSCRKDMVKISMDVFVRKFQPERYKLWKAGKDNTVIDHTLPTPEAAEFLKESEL
Procedure: Kinetic parameters for KDM4 enzymes were determined by use of an FDH (formaldehyde dehydrogenase)/NAD^+‐coupled) assay for quantification of the formaldehyde reaction byproduct, as previously described 27. […] Specific activities were measured using a 100‐μM peptide. For Michaelis–Menten experiments, peptide concentrations were varied. Reactions were monitored using a PHERAstar FS plate reader (BMG Labtech, Ortenberg, Germany) with 355 nm excitation and 460 nm emission. Kinetic parameters were calculated from the reaction rate during the initial linear phase of formaldehyde production, which were used to calculate specific activities or fitted to Michaelis–Menten equations using […] PRISM (GraphPad Software, La Jolla, CA, USA).
Michaelis–Menten kinetics were then conducted with KDM4A. Samples containing KDM4A, 2OG, ascorbate, H1.4K26me3 peptide, NAD^+ and FDH were analysed over time and kinetic parameters were determined by recording the initial reaction rates of NADH production (corresponding to enzymatic production of formaldehyde) at varying peptide concentration.

KDM3A (KDM3A515–1317) = experiment: MALDI-TOF MS demethylation activity assay, KDM3A; assay type: biochemical, human; parameters: key: 🟢: Indicates that clear demethylation activity was observed; 🟡: Indicates that low level demethylation activity was observed (<10% conversion after 1 h); 🔴: Indicates no activity under the stated conditions (1 μM KDM, 10 μM peptide); 🟡*: *Indicates demethylation activity was only observed with 5 μM KDM; details: peptide as substrate, 1 μM KDM, 10 μM peptide, 50 mM HEPES pH 7.5, Fe(II) 10 μM, ascorbate 100 μM, 2OG 200 μM, 1 mM TCEP, 1 h at 37 °C
Procedure: (§1) Recombinant proteins (1 μM) were incubated with peptides (10 μM, sequences are given in Table S1) in 50 mM HEPES, pH 7.5 with addition of Fe(II) ammonium sulfate (10 μM), sodium ascorbate (100 μM) and 2‐oxoglutaric acid (200 μM). Reactions with KDM3A and KDM7A also contained 1 mM tris(2‐carboxyethyl)phosphine hydrochloride. No enzyme reactions were included as negative controls. Reactions were incubated for 1 h at 37 °C before being quenched with 1 : 1 (v/v) methanol. Analysis was carried out by MALDI‐TOF MS (Bruker, Billerica, MA, USA), with demethylation observed as mass shifts of 14 Da.
(§2) The propensity of human JmjC KDMs to catalyse demethylation at H1.4K26 was investigated using recombinant forms of the catalytic domains of representatives of each human JmjC KDM subfamily (KDM2‐7) and fragment peptides (Table S1) 37. Three peptides with identical sequences, corresponding to residues 18–32 of histone H1.4 (H2N‐[…]‐CONH2), but containing either a N ^ε‐tri‐, di‐ or monomethyllysine at K26 were synthesised (Fig. 1B and Table S1). Activity assays monitoring JmjC KDM‐catalysed demethylation of the peptides were then carried out; samples were prepared containing each peptide, 2‐oxoglutarate (2OG), ferrous iron, ascorbate and individual representatives from each JmjC KDM subfamily (KDM2A 38, KDM3A 21, KDM4E 22, KDM5C 39, 40, KDM6B 41, KDM7A 42).

KDM2A (KDM2A1–557) = experiment: MALDI-TOF MS demethylation activity assay, KDM2A; assay type: biochemical, human; parameters: key: 🟢: Indicates that clear demethylation activity was observed; 🟡: Indicates that low level demethylation activity was observed (<10% conversion after 1 h); 🔴: Indicates no activity under the stated conditions (1 μM KDM, 10 μM peptide); 🟡*: *Indicates demethylation activity was only observed with 5 μM KDM; details: peptide as substrate, 1 μM KDM, 10 μM peptide, 50 mM HEPES pH 7.5, Fe(II) 10 μM, ascorbate 100 μM, 2OG 200 μM, 1 h at 37 °C
Procedure: as §1, §2

KDM4D (KDM4D1–359) = experiment: MALDI-TOF MS demethylation activity assay, KDM4D; assay type: biochemical, human; parameters: key: 🟢: Indicates that clear demethylation activity was observed; 🟡: Indicates that low level demethylation activity was observed (<10% conversion after 1 h); 🔴: Indicates no activity under the stated conditions (1 μM KDM, 10 μM peptide); 🟡*: *Indicates demethylation activity was only observed with 5 μM KDM; details: peptide as substrate, 1 μM KDM, 10 μM peptide, 50 mM HEPES pH 7.5, Fe(II) 10 μM, ascorbate 100 μM, 2OG 200 μM, 1 h at 37 °C
Procedure: as §1
(§3) Given the activity observed with KDM4E and KDM7A, we decided to investigate the intra‐subfamily conservation of this demethylation activity. The demethylation activity of the other subfamily members (KDM4A‐D and KDM7B) was therefore screened. […] Note that as with H3K9, demethylation of the monomethylated H1.4K26 peptide was only observed with KDM4E, under the stated conditions 24.

KDM6B (KDM6B1141–1590) = experiment: MALDI-TOF MS demethylation activity assay, KDM6B; assay type: biochemical, human; parameters: key: 🟢: Indicates that clear demethylation activity was observed; 🟡: Indicates that low level demethylation activity was observed (<10% conversion after 1 h); 🔴: Indicates no activity under the stated conditions (1 μM KDM, 10 μM peptide); 🟡*: *Indicates demethylation activity was only observed with 5 μM KDM; details: peptide as substrate, 1 μM KDM, 10 μM peptide, 50 mM HEPES pH 7.5, Fe(II) 10 μM, ascorbate 100 μM, 2OG 200 μM, 1 h at 37 °C
Procedure: as §1, §2

KDM5C (KDM5C1–765) = experiment: MALDI-TOF MS demethylation activity assay, KDM5C; assay type: biochemical, human; parameters: key: 🟢: Indicates that clear demethylation activity was observed; 🟡: Indicates that low level demethylation activity was observed (<10% conversion after 1 h); 🔴: Indicates no activity under the stated conditions (1 μM KDM, 10 μM peptide); 🟡*: *Indicates demethylation activity was only observed with 5 μM KDM; details: peptide as substrate, 1 μM KDM, 10 μM peptide, 50 mM HEPES pH 7.5, Fe(II) 10 μM, ascorbate 100 μM, 2OG 200 μM, 1 h at 37 °C
Procedure: as §1, §2

KDM7B (PHF8; KDM7B1–447) = experiment: MALDI-TOF MS demethylation activity assay, KDM7B (PHF8); assay type: biochemical, human; parameters: key to demethylation activity on methylated H1.4 peptide: 🟢: Indicates that clear demethylation activity was observed; 🟡: Indicates that low level demethylation activity was observed (<10% conversion after 1 h); 🔴: Indicates no activity under the stated conditions (1 μM KDM, 10 μM peptide); 🟡*: *Indicates demethylation activity was only observed with 5 μM KDM; details: for demethylation at increased enzyme concentration (result in words): MALDI-TOF MS time course, KDM7B 5 μM, peptide 10 μM, 37 °C
Procedure: as §1, §3
(§4) N ^ε‐Trimethylated H3K4 binds to the plant homeobox domain of KDM7B, targeting the N ^ε‐dimethyllysine at H3K9 to the catalytic domain, and thus promoting demethylation 29, 44. To test whether similar targeting may occur with H1.4, promoting activity at H1.4K26, an H1.4 peptide was synthesised containing di‐N ^ε‐methyllysine at K26 and tri‐N ^ε‐methyllysine at K21 (i.e. at the equivalent position in the sequence to K4 in the H3 peptide, Fig. 1B, Table S1). Monomethylation at H1.4K21 has previously been observed by proteomic mass spectrometry 45. With the aim of enhancing activity, the enzyme concentration was increased from 1 μM to 5 μM, and time course analyses were conducted with both KDM7A and KDM7B, both with the new peptide (H1.4(18–32)K21me3K26me2) and the H1.4 peptides methylated only at K26 (Fig. 2B). […] Thus, it appears unlikely that N ^ε‐trimethylation at H1.4K21 promotes demethylation at H1.4K26 by KDM7B.

KDM7A (KDM7A38–480) = experiment: MALDI-TOF MS demethylation activity assay, KDM7A; assay type: biochemical, human
Procedure: as §1, §2, §4

KDM4E (KDM4E1–337) = experiment: MALDI-TOF MS demethylation activity assay, KDM4E; assay type: biochemical, human; parameters: key: 🟢: Indicates that clear demethylation activity was observed; 🟡: Indicates that low level demethylation activity was observed (<10% conversion after 1 h); 🔴: Indicates no activity under the stated conditions (1 μM KDM, 10 μM peptide); 🟡*: *Indicates demethylation activity was only observed with 5 μM KDM; details: peptide as substrate, 1 μM KDM, 10 μM peptide, 50 mM HEPES pH 7.5, Fe(II) 10 μM, ascorbate 100 μM, 2OG 200 μM, 1 h at 37 °C
Procedure: as §1, §2

KDM4A (KDM4A1–359) = experiment: MALDI-TOF MS demethylation activity assay, KDM4A; assay type: biochemical, human; parameters: key: 🟢: Indicates that clear demethylation activity was observed; 🟡: Indicates that low level demethylation activity was observed (<10% conversion after 1 h); 🔴: Indicates no activity under the stated conditions (1 μM KDM, 10 μM peptide); 🟡*: *Indicates demethylation activity was only observed with 5 μM KDM; details: peptide as substrate, 1 μM KDM, 10 μM peptide, 50 mM HEPES pH 7.5, Fe(II) 10 μM, ascorbate 100 μM, 2OG 200 μM, 1 h at 37 °C
Procedure: as §1, §3

KDM4B (KDM4B1–359) = experiment: MALDI-TOF MS demethylation activity assay, KDM4B; assay type: biochemical, human; parameters: key: 🟢: Indicates that clear demethylation activity was observed; 🟡: Indicates that low level demethylation activity was observed (<10% conversion after 1 h); 🔴: Indicates no activity under the stated conditions (1 μM KDM, 10 μM peptide); 🟡*: *Indicates demethylation activity was only observed with 5 μM KDM; details: peptide as substrate, 1 μM KDM, 10 μM peptide, 50 mM HEPES pH 7.5, Fe(II) 10 μM, ascorbate 100 μM, 2OG 200 μM, 1 h at 37 °C
Procedure: as §1, §3

KDM4C (KDM4C1–359) = experiment: MALDI-TOF MS demethylation activity assay, KDM4C; assay type: biochemical, human; parameters: key: 🟢: Indicates that clear demethylation activity was observed; 🟡: Indicates that low level demethylation activity was observed (<10% conversion after 1 h); 🔴: Indicates no activity under the stated conditions (1 μM KDM, 10 μM peptide); 🟡*: *Indicates demethylation activity was only observed with 5 μM KDM; details: peptide as substrate, 1 μM KDM, 10 μM peptide, 50 mM HEPES pH 7.5, Fe(II) 10 μM, ascorbate 100 μM, 2OG 200 μM, 1 h at 37 °C
Procedure: as §1, §3

[1] = concentration varied, FDH/NAD+-coupled fluorescence assay, 50 mM HEPES pH 7.5, 0.01% Tween-20, 2OG 200 μM, KDM4A, mean and standard deviation of three independent replicates, SD

Row | Substance | K M (recombinant human KDM4A; [1]) [µM] | k cat (recombinant human KDM4A; [1]) [s⁻¹] | k cat/K M (recombinant human KDM4A; FDH-coupled assay, ratio of k cat (s^−1) and K M (μM)) [M⁻¹ s⁻¹] | demethylation activity on methylated H1.4 peptide (KDM3A (KDM3A515–1317)) | demethylation activity on methylated H1.4 peptide (KDM2A (KDM2A1–557)) | demethylation activity on methylated H1.4 peptide (KDM4D (KDM4D1–359)) | demethylation activity on methylated H1.4 peptide (KDM6B (KDM6B1141–1590)) | demethylation activity on methylated H1.4 peptide (KDM5C (KDM5C1–765)) | demethylation at increased enzyme concentration (result in words) (KDM7B (PHF8; KDM7B1–447)) | demethylation at increased enzyme concentration (result in words) (KDM7B (PHF8; KDM7B1–447); listed as H1.4K26me2) | demethylation activity on methylated H1.4 peptide (KDM7B (PHF8; KDM7B1–447); peptide as substrate, MALDI-TOF MS, 1 μM KDM (* = only with 5 μM KDM), 10 μM peptide, 50 mM HEPES pH 7.5, Fe(II) 10 μM, ascorbate 100 μM, 2OG 200 μM, 1 h at 37 °C) | demethylation at increased enzyme concentration (result in words) (KDM7A (KDM7A38–480); MALDI-TOF MS time course, KDM7A 5 μM, peptide 10 μM, 37 °C) | demethylation activity on methylated H1.4 peptide (KDM7A (KDM7A38–480); peptide as substrate, MALDI-TOF MS, 1 μM KDM, 10 μM peptide, 50 mM HEPES pH 7.5, Fe(II) 10 μM, ascorbate 100 μM, 2OG 200 μM, 1 mM TCEP, 1 h at 37 °C) | demethylation activity on methylated H1.4 peptide (KDM4E (KDM4E1–337)) | demethylation activity on methylated H1.4 peptide (KDM4A (KDM4A1–359)) | demethylation activity on methylated H1.4 peptide (KDM4B (KDM4B1–359)) | demethylation activity on methylated H1.4 peptide (KDM4C (KDM4C1–359))
1 | APATGGV-Kme3-KPHRYRP [H3(29–43)K36me3, histone H3 residues 29–43 peptide with Kme3 at K36, reference compound] | 66.8 ± 5.4 | 0.12 ± 0.004 | 1900 | – | – | – | – | – | – | – | – | – | – | – | – | – | –
2 | TPVKKKAR[Lys(Me2)]SAGAAK [H1.4(18–32)K26me2, peptide of residues 18–32 of histone H1.4 with N ε-dimethyllysine at K26] | – | – | – | 🔴 | 🔴 | 🟢 | 🔴 | 🔴 | demethylation of H1.4(18-32)K26me2 is observed | clear evidence for demethylation | 🟡* | clear evidence for demethylation | 🟡 (Indicates that low level demethylation activity was observed (<10% conversion after 1 h)) | 🟢 | 🟢 | 🟢 | 🟢
